This is an account of results in US11613531B2, “Inhibitors of RHO associated coiled-coil containing protein kinase” (Kadmon Corporation, LLC, priority 2017, dated 2023).

Assay [1] deals with Recombinant ROCK1 (amino acids 1-535) (Homo sapiens (Human), UniProt Q13464). The assay is described as follows: Z′-Lyte kinase assay, ROCK1. The format is biochemical. Particulars: for inhibition at 0.5 µM: 0.5 μM compound, read-out: ROCK1 % inh. @ [conc]. An outline of the steps:
(§1)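 Recombinant human ROCK1 (aa 1-535) or ROCK2 (aa 1-552) activity read by Z′-Lyte kinase assay. Percent inhibition at 1 μM compound was normalized to DMSO control; IC50 from 9-point 2-fold serial dilutions by nonlinear regression.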

The target of assay [2] is Recombinant ROCK2 (amino acids 1-552) (Homo sapiens (Human), UniProt O75116). The experiment in a line: Z′-Lyte kinase assay, ROCK2. Type of assay: biochemical. Conditions: for inhibition at 1 µM: 1 μM compound; for inhibition at 1 µM / inhibition at 0.5 µM: read-out: ROCK2 % inh. @ [conc]; for inhibition at 0.5 µM: 0.5 μM compound. An outline of the steps:
as §1

Assay [3] concerns ppMlc (T18/S19) levels in A7R5 cells. The assay is described as follows: A7R5 in-cell ELISA (pMLC). Type of assay: cell-based, Rat. Conditions: Rattus norvegicus, A7R5, A7R5 cells; for inhibition at 1 µM: 1 μM compound; for inhibition at 1 µM / inhibition at 10 µM: read-out: pMLC % inh A7R5 @ [conc]; for inhibition at 10 µM: 10 μM compound. Summed up:
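A7R5 rat aortic smooth muscle cells seeded 24 h, then treated 90 min with a 9-point 2-fold compound dilution series. Fixed cells probed for ppMlc (T18/S19) by colorimetric in-cell ELISA; cellular IC50 from nonlinear regression curve fit.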
On the technique in general: ELISA stands for enzyme-linked immunosorbent assay.

Assay [4] concerns human ACTA2 gene promoter luciferase reporter in NIH3T3 cells. The experiment in a line: NIH3T3 Acta2-promoter driven-luciferase assay. Conditions: read-out: NIH3T3 Acta2-luc, IC50. Type of assay: cell-based. An outline of the steps: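 NIH3T3 cells stably carrying a human ACTA2 promoter (−1000-1 bp)-luciferase reporter, grown to confluence, treated 24 hr with compound plus TGFβ1 at 9-point serial dilution. Luciferase read after lysis; IC50 by nonlinear regression.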

The mark [5] stands for this setting: 9 points 2-fold serial dilution.
Setting [6] is: NIH3T3, 24 h, NIH3T3 cells, plus TGFβ1 for 24 hr.
Where [7] appears, read: NIH3T3, 24 h, with TGFβ1, 24 hr.

Read-outs that look alike come from different tables or passages of the source.

Usually IC50 stands for the midpoint of a concentration-inhibition curve.

Recombinant ROCK2 (amino acids 1-552), sequence (O75116 1-552): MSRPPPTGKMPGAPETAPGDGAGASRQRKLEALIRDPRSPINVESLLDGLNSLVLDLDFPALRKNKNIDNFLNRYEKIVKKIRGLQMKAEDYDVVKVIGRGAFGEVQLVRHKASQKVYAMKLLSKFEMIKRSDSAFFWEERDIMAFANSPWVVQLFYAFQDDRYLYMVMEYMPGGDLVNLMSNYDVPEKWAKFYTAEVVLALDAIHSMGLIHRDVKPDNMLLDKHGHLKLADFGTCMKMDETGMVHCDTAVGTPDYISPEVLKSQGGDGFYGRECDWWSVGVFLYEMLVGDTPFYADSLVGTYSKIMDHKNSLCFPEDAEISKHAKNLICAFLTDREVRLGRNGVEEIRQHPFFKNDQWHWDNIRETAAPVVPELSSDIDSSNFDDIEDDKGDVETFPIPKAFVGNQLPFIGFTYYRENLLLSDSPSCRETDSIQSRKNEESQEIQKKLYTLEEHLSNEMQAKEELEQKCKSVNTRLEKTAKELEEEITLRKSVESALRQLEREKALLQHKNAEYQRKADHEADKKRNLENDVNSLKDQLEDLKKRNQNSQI
Recombinant ROCK1 (amino acids 1-535), sequence (Q13464 1-535): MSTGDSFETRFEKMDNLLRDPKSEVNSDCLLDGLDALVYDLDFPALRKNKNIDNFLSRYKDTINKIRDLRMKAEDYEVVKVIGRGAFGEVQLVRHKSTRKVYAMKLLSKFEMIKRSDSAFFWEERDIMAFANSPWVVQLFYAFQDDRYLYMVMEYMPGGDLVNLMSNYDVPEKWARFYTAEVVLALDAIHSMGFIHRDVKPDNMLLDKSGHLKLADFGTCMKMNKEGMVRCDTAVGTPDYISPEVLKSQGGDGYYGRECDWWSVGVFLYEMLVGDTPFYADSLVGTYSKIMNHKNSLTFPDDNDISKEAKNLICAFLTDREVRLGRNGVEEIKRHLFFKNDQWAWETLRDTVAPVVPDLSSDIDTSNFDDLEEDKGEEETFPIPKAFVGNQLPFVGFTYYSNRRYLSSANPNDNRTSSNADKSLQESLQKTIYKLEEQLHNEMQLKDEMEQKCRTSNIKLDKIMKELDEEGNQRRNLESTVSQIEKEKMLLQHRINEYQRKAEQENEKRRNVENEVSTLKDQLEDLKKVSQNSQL

Turning to `Clc1cnc(N2CC3CC2CN3)nc1Nc1ccc2[nH]ncc2c1` (stereo not shown) [Example 194, N-(2-(2,5-diazabicyclo[2.2.1]heptan-2-yl)-5-chloropyrimidin-4-yl)-1H-indazol-5-amine], the IC50 is 41 nM in assay [1] (setting [5]), 23 nM in assay [2] (setting [5]), 176 nM in assay [3] (ppMlc (T18/S19)) and 1540 nM in assay [4] (setting [6]). In addition, the results for the inhibition at 1 µM in assay [2] and in assay [3] were 98.3% and 31.6%, respectively.

Take `COc1cnc(N2C3CCC2CNC3)nc1Nc1ccc2[nH]ncc2c1` [Example 198, N-(2-(3,8-diazabicyclo[3.2.1]octan-8-yl)-5-methoxypyrimidin-4-yl)-1H-indazol-5-amine]: the 50% inhibitory concentration (IC50) turned out to be 4.1 nM in assay [1], 5 nM in assay [2], 57 nM in assay [3] and 413 nM in assay [4] (setting [7]). For the same compound, the results for the inhibition at 1 µM in assay [2] and in assay [3] were 104% and 38%, respectively.

Regarding `c1cc(Nc2ccc3[nH]ncc3c2)nc(N2C3CNCC2C3)n1` [Example 200, N-(2-(3,6-diazabicyclo[3.1.1]heptan-6-yl)pyrimidin-4-yl)-1H-indazol-5-amine], the IC50 in assay [1] (setting [5]) came to 28 nM; in assay [2] (setting [5]), 1.6 nM; in assay [3] (ppMlc (T18/S19)) it was 275 nM; in assay [4] (setting [6]) it was 1600 nM. In addition, the inhibition at 10 µM in assay [3] turned out to be 49.8%.

Regarding `c1cc(Nc2ccc3[nH]ncc3c2)nc(N2CC3CC2CN3)n1` (stereo not shown) [Example 201, N-(2-(2,5-diazabicyclo[2.2.1]heptan-2-yl)pyrimidin-4-yl)-1H-indazol-5-amine], the IC50 stood at 37 nM in assay [1] (setting [5]), 27 nM in assay [2] (setting [5]), 168 nM in assay [3] (ppMlc (T18/S19)) and 1640 nM in assay [4] (setting [6]). Besides, the inhibition at 1 µM in assay [3] turned out to be 50.1%.

Regarding `Cc1cc(Nc2ccc3[nH]ncc3c2)nc(N2CCNC(C)C2)n1` (stereo not shown) [Example 204, N-(6-methyl-2-(3-methylpiperazin-1-yl)pyrimidin-4-yl)-1H-indazol-5-amine], the IC50 turned out to be 20 nM in assay [1] (setting [5]), 85 nM in assay [2] (setting [5]), 231 nM in assay [3] (ppMlc (T18/S19)) and 1780 nM in assay [4] (setting [6]). Further, the inhibition at 10 µM in assay [3] was 70%.

Regarding `Cc1cc(Nc2ccc3[nH]ncc3c2)nc(N2CCNCC2C)n1` (stereo not shown) [Example 207, N-(6-methyl-2-(2-methylpiperazin-1-yl)pyrimidin-4-yl)-1H-indazol-5-amine], the concentration for half-maximal inhibition (IC50) in assay [1] (setting [5]) came to 41 nM; in assay [2] (setting [5]) it was 104 nM; in assay [3] (ppMlc (T18/S19)), 351 nM; in assay [4] (setting [6]), 1260 nM. Further, in assay [2], the inhibition at 1 µM is 91%. Besides, the inhibition at 10 µM in assay [3] amounted to 52.3%.

On to `Cc1cc(Nc2ccc3[nH]ncc3c2)nc(N2C3CCC2CNC3)n1` [Example 209, N-(2-(3,8-diazabicyclo[3.2.1]octan-8-yl)-6-methylpyrimidin-4-yl)-1H-indazol-5-amine], for which the IC50 came out at 5 nM in assay [1] (setting [5]), 34 nM in assay [2] (setting [5]), 47 nM in assay [3] (ppMlc (T18/S19)) and 332 nM in assay [4] (setting [6]). Further, the inhibition at 1 µM in assay [3] turned out to be 53.2%.

Take `Cc1cc(Nc2ccc3[nH]ncc3c2)nc(N2C3CNCC2C3)n1` [Example 213, N-(2-(3,6-diazabicyclo[3.1.1]heptan-6-yl)-6-methylpyrimidin-4-yl)-1H-indazol-5-amine]: the half-inhibitory concentration (IC50) in assay [1] (setting [5]) was determined as 0.2 nM; in assay [2] (setting [5]), 1.6 nM; in assay [3] (ppMlc (T18/S19)) it was 60 nM; in assay [4] (setting [6]), 230 nM. Also, the inhibition at 1 µM in assay [2] is 101%; in assay [3], 34%.

As for `Fc1cnc(N2CCNCC2)nc1Nc1ccc2[nH]ncc2c1` [Example 214, N-(5-fluoro-2-(piperazin-1-yl)pyrimidin-4-yl)-1H-indazol-5-amine], the IC50 in assay [1] (setting [5]) is 38 nM; in assay [2] (setting [5]), 26 nM; in assay [3] (ppMlc (T18/S19)) it was 323 nM; in assay [4] (setting [6]) it was 1250 nM. The inhibition at 10 µM in assay [3] was determined as 63%.

Regarding `Fc1cnc(N2CCCNCC2)nc1Nc1ccc2[nH]ncc2c1` [Example 215, N-(2-(1,4-diazepan-1-yl)-5-fluoropyrimidin-4-yl)-1H-indazol-5-amine], the 50% inhibitory concentration (IC50) in assay [1] (setting [5]) came out at 40 nM; in assay [2] (setting [5]), 37 nM; in assay [3] (ppMlc (T18/S19)), 201 nM; in assay [4] (setting [6]) it was 1220 nM; in assay [4] (NIH3T3 cells, plus TGFβ1 for 24 hr) it was 1780 nM. In addition, the inhibition at 10 µM in assay [3] came out at 68.5%.

Consider `Fc1cnc(N2CC3CCC(C2)N3)nc1Nc1ccc2[nH]ncc2c1` [Example 217, N-(2-(3,8-diazabicyclo[3.2.1]octan-3-yl)-5-fluoropyrimidin-4-yl)-1H-indazol-5-amine], for which the IC50 is 6 nM in assay [1] (setting [5]), 28 nM in assay [2] (setting [5]), 127 nM in assay [3] (ppMlc (T18/S19)) and 963 nM in assay [4] (setting [6]). Besides, in assay [3], the inhibition at 1 µM came out at 51.2%.

Regarding `CC1CNCCN(c2ncc(F)c(Nc3ccc4[nH]ncc4c3)n2)C1` (stereo not shown) [Example 218, N-(5-fluoro-2-(6-methyl-1,4-diazepan-1-yl)pyrimidin-4-yl)-1H-indazol-5-amine], the values for the IC50 in assay [1] (setting [5]), in assay [3] (ppMlc (T18/S19)) and in assay [4] (setting [6]) were 65 nM, 430 nM and 6110 nM, respectively. In addition, the results for the inhibition at 1 µM in assay [2] and in assay [3] were 99.5% and 53%, respectively.

Turning to `Fc1cnc(N2CC3CC2CN3)nc1Nc1ccc2[nH]ncc2c1` (stereo not shown) [Example 219, N-(2-(2,5-diazabicyclo[2.2.1]heptan-2-yl)-5-fluoropyrimidin-4-yl)-1H-indazol-5-amine], the IC50 was 18 nM in assay [1] (setting [5]), 41 nM in assay [2] (setting [5]), 77 nM in assay [3] (ppMlc (T18/S19)) and 613 nM in assay [4] (setting [6]). Also, the inhibition at 1 µM in assay [3] came out at 46.6%.

Take `Fc1cnc(N2C3CNCC2C3)nc1Nc1ccc2[nH]ncc2c1` [Example 220, N-(2-(3,6-diazabicyclo[3.1.1]heptan-6-yl)-5-fluoropyrimidin-4-yl)-1H-indazol-5-amine]: the IC50 in assay [1] (setting [5]) turned out to be 3.1 nM; in assay [2] (setting [5]) it was 5.9 nM; in assay [3] (ppMlc (T18/S19)) it was 74 nM; in assay [4] (setting [6]) it was 167 nM. In assay [3], the inhibition at 1 µM was 45.1%.

For `CC1CNCCN(c2nccc(Nc3ccc4[nH]ncc4c3)n2)C1` (stereo not shown) [Example 237, N-(2-(6-methyl-1,4-diazepan-1-yl)pyrimidin-4-yl)-1H-indazol-5-amine], the concentration for half-maximal inhibition (IC50) turned out to be 63 nM in assay [1] (setting [5]), 104 nM in assay [2] (setting [5]), 423 nM in assay [3] (ppMlc (T18/S19)) and 2350 nM in assay [4] (setting [6]). The inhibition at 10 µM in assay [3] worked out at 68.2%.

In the case of `Cc1nc(N2C3CCC2CNC3)nc(Nc2ccc3[nH]ncc3c2)c1F` [Example 302, N-(2-(3,8-diazabicyclo[3.2.1]octan-8-yl)-5-fluoro-6-methylpyrimidin-4-yl)-1H-indazol-5-amine], the figures for the inhibition at 0.5 µM in assay [1] and in assay [2] were 99% and 98%, respectively. Further, the IC50 in assay [2] worked out at 2.2 nM; in assay [3], 35 nM; in assay [4] (setting [7]), 229 nM.

Consider `CC(=O)N1Cc2nc(N3C4CCC3CNC4)nc(Nc3ccc4[nH]ncc4c3)c2C1` [Example 314, 1-(4-((1H-indazol-5-yl)amino)-2-(3,8-diazabicyclo[3.2.1]octan-8-yl)-5,7-dihydro-6H-pyrrolo[3,4-d]pyrimidin-6-yl)ethan-1-one], for which the inhibition at 0.5 µM is 81% in assay [1] and 94% in assay [2]. Also, the concentration for half-maximal inhibition (IC50) in assay [2] was 80 nM; in assay [3], > 5000 nM; in assay [4] (setting [7]), > 5000 nM.

Consider `c1cc(-c2cn[nH]c2)ccc1Nc1nc(N2C3CNCC2C3)nc2c1COC2` [Example 316, N-(4-(1H-pyrazol-4-yl)phenyl)-2-(3,6-diazabicyclo[3.1.1]heptan-6-yl)-5,7-dihydrofuro[3,4-d]pyrimidin-4-amine], for which the inhibition at 0.5 µM in assay [1] was 90%; in assay [2], 85%. The IC50 in assay [2] was 27 nM; in assay [3], 2420 nM; in assay [4] (setting [7]) it was > 10000 nM.

Take `c1cc(-c2cn[nH]c2)ccc1Nc1nc(N2C3CNCC2C3)nc2c1COCC2` [Example 317, N-(4-(1H-pyrazol-4-yl)phenyl)-2-(3,6-diazabicyclo[3.1.1]heptan-6-yl)-7,8-dihydro-5H-pyrano[4,3-d]pyrimidin-4-amine]: the inhibition at 0.5 µM turned out to be 70% in assay [1] and 75% in assay [2]. Moreover, the IC50 in assay [2] was 38 nM; in assay [3], > 10000 nM; in assay [4] (setting [7]), > 10000 nM.

Regarding `Oc1nc(N2C3CCC2CNC3)nc(Nc2ccc3[nH]ncc3c2)c1F` [Example 320, 6-((1H-indazol-5-yl)amino)-2-(3,8-diazabicyclo[3.2.1]octan-8-yl)-5-fluoropyrimidin-4-ol], the IC50 in assay [1] was 8.7 nM; in assay [2], 18 nM; in assay [3] it was > 5000 nM; in assay [4] (setting [7]) it was > 5000 nM. Also, the inhibition at 0.5 µM in assay [1] stood at 95%; in assay [2], 97%.
